Entries after “also recorded” stand apart in the source; their conditions may differ.
Experiments:
[1] = system: Parkinson's disease subjects; conditions: cited from earlier work
[2] = system: HT22 (mouse hippocampal) cells; conditions: J. Neurochem. 119:839-847 (2011); cited from earlier work
[3] = system: human bone marrow-derived cells (HBM); type: cell-based
[4] = system: Adult Human Bone Marrow Cells; test: CLQ treatment of adult human bone marrow cells, CTB-Alexa488 staining (Example 2); type: cell-based; conditions: 50 uM CLQ, 48 h, CTB-Alexa488, FIG. 2; listed as CLQ
[5] = system: PC12 (rat adrenal medulla tumor) cells; conditions: FEBS Lett. 580:6972-6976 (2006); cited from earlier work

GM1
safety of long-term use ([1]; five-year study, J. Neurol. Sci. 292:45-51 (2010)): safe
effect on symptoms ([1]; short-term treatment, Neurology 50:1630-1636 (1998)): significant symptom reduction

CCN(CC)CCCC(C)Nc1ccnc2cc(Cl)ccc12 (stereo not drawn) [Chloroquine, chloroquine]
GM1 levels [2]: only moderately increased GM1 levels
up-regulation of GM1 expression vs control [3]: approximately 8 fold
accumulation of GM1 vs control [4]: significantly higher accumulation of GM1; also recorded: abundant and intense compared to control conditions
accumulation [5]: induce accumulation

From patent publication US20150025234A1, “GANGLIOSIDE COMPOSITIONS” (priority 2013, published 2015)
